Results from patent US11806346B2, “HTT modulators for treating Huntington's disease” (CHDI Foundation, Inc., priority 2020, dated 2023).
pEC50: −log10 of the molar value.

system: tHTT (total HTT protein); test: Time-resolved FRET assay, total huntingtin (tHTT) detection in cell lysates; assay type: cell-based, human; conditions: Example (compounds of the instant disclosure); GEN020 hESCs, 48 hours; read-out: tHTT EC50
Procedure, shortened: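 TR-FRET readout on cell lysates, with the donor/acceptor ratio reflecting relative total HTT.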

Structure (SMILES) | pEC50
Cc1cn2cc(NC(=O)c3cnc(N4CCNCC4)cn3)cc(F)c2n1 [drawing 1144] | 5.51
Cc1cn2cc(NC(=O)c3cnc(N4CCNCC4)cn3)nc(C)c2n1 [drawing 1142] | 5.77

same assay, conditions: GEN020 hESCs (mutant 48 Q repeat allele), compounds added for 48 hours, TR-FRET on lysate; read-out: tHTT EC50

Structure (SMILES) | pEC50
Cc1cn2cc(NC(=O)c3cnc(N4CC(F)(CNC5CC5)C4)cn3)nc(C)c2n1 [Example 248, 5-(3-((cyclopropylamino)methyl)-3-fluoroazetidin-1-yl)-N-(2,8-dimethylimidazo[1,2-a]pyrazin-6-yl)pyrazine-2-carboxamide] | 6.00 to 6.30
Cc1cn2cc(NC(=O)c3cnc(N4CC[C@@H](NC5CC5)C4)cn3)cc(Cl)c2n1 [Example 341] | > 7.00
CN[C@@H]1CN(c2cnc(C(=O)Nc3cc(F)c4nc(C)cn4c3)cn2)C[C@@H]1C [Example 98] | 6.30 to 7.00
CCNC1CN(c2cnc(C(=O)Nc3cc(F)c4nc(C)cn4c3)cn2)CC1F (centres unmarked) [Example 120] | 6.30 to 7.00
CN(CC1CN(c2cnc(C(=O)Nc3cc(F)c4nn(C)cc4c3)cn2)C1)C1CC1 [Example 320, 5-(3-((cyclopropyl(methyl)amino)methyl)azetidin-1-yl)-N-(7-fluoro-2-methyl-2H-indazol-5-yl)pyrazine-2-carboxamide] | 6.30 to 7.00
CCOc1cc2nn(C)cc2cc1NC(=O)c1cnc(N2CC(CNC3CC3)C2)cn1 [Example 255, 5-(3-((cyclopropylamino)methyl)azetidin-1-yl)-N-(6-ethoxy-2-methyl-2H-indazol-5-yl)pyrazine-2-carboxamide] | 6.30 to 7.00
Cc1cn2cc(NC(=O)c3cnc(N4CCNC[C@H]4C)cn3)cc(F)c2n1 [Example 5] | 5.00 to 6.00
Cc1cn2cc(NC(=O)c3cnc(N4C[C@@H](C)NC[C@H]4C)cn3)cc(F)c2n1 [Example 6] | 5.00 to 6.00
Cc1cn2cc(NC(=O)c3cnc(N4CC5(CCCN(C6CC6)C5)C4)cn3)cc(F)c2n1 [Example 242, 5-(6-cyclopropyl-2,6-diazaspiro[3.5]nonan-2-yl)-N-(8-fluoro-2-methylimidazo[1,2-a]pyridin-6-yl)pyrazine-2-carboxamide] | 6.00 to 6.30
Cc1cn2cc(NC(=O)c3cnc(N4CC[C@@H](C5(NC6CC6)CC5)C4)cn3)cc(F)c2n1 [Example 170, (R)-5-(3-(1-(cyclopropylamino)cyclopropyl)pyrrolidin-1-yl)-N-(8-fluoro-2-methylimidazo[1,2-a]pyridin-6-yl)pyrazine-2-carboxamide] | 6.30 to 7.00
Cc1cn2cc(NC(=O)c3cnc(N4CCC(C5CCCN5C)C4)cn3)cc(F)c2n1 (single isomer, unassigned) [Example 237] | 6.30 to 7.00
Cc1cn2cc(NC(=O)c3cnc(N4CCC(N5CC[C@@H](F)C5)C4)cn3)cc(F)c2n1 (single isomer, unassigned) [Example 301] | 6.00 to 6.30
Cc1cn2cc(NC(=O)c3cnc(N4CCC(NC(C)(C)C)C4)cn3)cc(F)c2n1 (centres unmarked) [Example 43] | 6.30 to 7.00
Cc1cn2cc(NC(=O)c3cnc(O[C@H]4CCNC[C@H]4F)cn3)cc(F)c2n1 [Example 215] | 6.00 to 6.30
CCOc1cc2nn(C)cc2cc1NC(=O)c1cnc(N2CC3(CCCN(C)C3)C2)cn1 [Example 252, N-(6-ethoxy-2-methyl-2H-indazol-5-yl)-5-(6-methyl-2,6-diazaspiro[3.5]nonan-2-yl)pyrazine-2-carboxamide] | > 7.00
Cc1cn2cc(NC(=O)c3cnc(N4CC5CN(C)CC5C4)cn3)cc(F)c2n1 (centres unmarked) [Example 34] | 6.30 to 7.00
CNC1([C@@H]2CCN(c3cnc(C(=O)Nc4cc(F)c5nc(C)cn5c4)cn3)C2)CC1 [Example 106, (R)—N-(8-fluoro-2-methylimidazo[1,2-a]pyridin-6-yl)-5-(3-(1-(methylamino)cyclopropyl)pyrrolidin-1-yl)pyrazine-2-carboxamide] | > 7.00
Cc1cn2cc(NC(=O)c3cnc(N4CCC(n5ccnc5)CC4)cn3)cc(F)c2n1 [Example 49] | 5.00 to 6.00

Structure (SMILES) | pEC50
Cc1cn2cc(NC(=O)c3cnc(N4CC(C5CCCCN5C5CC5)C4)cn3)cc(F)c2n1 (single isomer, unassigned) [Example 230] | 6.30 to 7.00
Cc1cn2cc(NC(=O)c3cnc(C#CCN(C)C)cn3)cc(F)c2n1 [Example 364, 5-[3-(Dimethylamino)prop-1-ynyl]-N-(8-fluoro-2-methyl-imidazo[1,2-a]pyridin-6-yl)pyrazine-2-carboxamide] | 5.00 to 6.00
Cc1cn2cc(NC(=O)c3cnc(N4CC[C@@H](CNCC(F)F)C4)cn3)nc(C)c2n1 [Example 222, (S)-5-(3-(((2,2-difluoroethyl)amino)methyl)pyrrolidin-1-yl)-N-(2,8-dimethylimidazo[1,2-a]pyrazin-6-yl)pyrazine-2-carboxamide] | 5.00 to 6.00
Cc1cn2cc(NC(=O)c3cnc(N4CCC(CN(C)C)C4)cn3)nc(C)c2n1 (centres unmarked) [Example 63] | 6.30 to 7.00
Cc1cn2cc(NC(=O)c3cnc(N4CCC(NC5CC(F)(F)C5)C4)cn3)cc(F)c2n1 (centres unmarked) [Example 19] | 6.00 to 6.30
Cc1nc2c(F)cc(NC(=O)c3cnc(N4CCNC(C)C4)cn3)cc2o1 (centres unmarked) [Example 339, N-(4-fluoro-2-methylbenzo[d]oxazol-6-yl)-5-(3-methylpiperazin-1-yl)pyrazine-2-carboxamide] | 5.00 to 6.00
Cc1cn2cc(NC(=O)c3cnc(N4CCC5(CCCN5C)C4)cn3)cc(F)c2n1 (centres unmarked) [Example 9] | 5.00 to 6.00
Cc1cn2cc(NC(=O)c3cnc(N4CC[C@@H](NC5CC5)C4=O)cn3)cc(F)c2n1 [Example 348, (R)-5-(3-(cyclopropylamino)-2-oxopyrrolidin-1-yl)-N-(8-fluoro-2-methylimidazo[1,2-a]pyridin-6-yl)pyrazine-2-carboxamide] | 6.30 to 7.00
Cc1cn2cc(NC(=O)c3cnc(N4CCC(NC(C)(C)C)C4)cn3)nc(C)c2n1 (centres unmarked) [Example 57] | 6.30 to 7.00
Cc1cn2cc(NC(=O)c3cnc(N4CC(C5COCCN5)C4)cn3)cc(F)c2n1 (single isomer, unassigned) [Example 347] | 6.30 to 7.00
Cc1cn2cc(NC(=O)c3cnc(N4CC5(CNCCO5)C4)cn3)cc(F)c2n1 [Example 338, N-(8-fluoro-2-methylimidazo[1,2-a]pyridin-6-yl)-5-(5-oxa-2,8-diazaspiro[3.5]nonan-2-yl)pyrazine-2-carboxamide] | 6.30 to 7.00
Cc1cn2cc(NC(=O)c3cnc(N4CC5CNCC5C4)cn3)nc(C)c2n1 (centres unmarked) [Example 59] | 6.00 to 6.30
Cc1cn2cc(NC(=O)c3cnc(N4CC(CN(C)C5CC5)C4)cn3)cc(C)c2n1 [Example 278] | 6.00 to 6.30
O=C(Nc1cc(F)c2nc(CF)cn2c1)c1cnc(N2CC(CNC3CC3)C2)cn1 [Example 290, 5-(3-((cyclopropylamino)methyl)azetidin-1-yl)-N-(8-fluoro-2-(fluoromethyl)imidazo[1,2-a]pyridin-6-yl)pyrazine-2-carboxamide] | 6.30 to 7.00
Cc1cn2cc(NC(=O)c3cnc(N4CCC(N5CC[C@@H](F)C5)C4)cn3)cc(F)c2n1 (single isomer, unassigned) [Example 302] | 6.00 to 6.30
Cc1cn2cc(NC(=O)c3cnc(O[C@@H]4CCNC[C@@H]4F)cn3)cc(F)c2n1 [Example 214] | 6.30 to 7.00
Cc1cn2cc(NC(=O)c3cnc(N4CCC(CNC5CC5)C4)cn3)cc(F)c2n1 (single isomer, unassigned) [Example 12, 5-(3-((cyclopropylamino)methyl)pyrrolidin-1-yl)-N-(8-fluoro-2-methylimidazo[1,2-a]pyridin-6-yl)pyrazine-2-carboxamide] | > 7.00
Cc1cn2cc(NC(=O)c3cnc(N4CC(C(C)NC5CC5)C4)cn3)nc(C)c2n1 (centres unmarked) [Example 204] | 6.30 to 7.00
